{"source": "patent US9782366B2", "about": "“Drug for killing acid-fast (red) bacillus” (priority 2013, dated 2017)", "key": {"[1]": {"assay": "Toxicity Test of Basic Fuchsine in guinea pigs", "settings": "guinea pigs, 8, 6 and 4 mg/kg body weight/d, once per day, 21 days", "text": "Materials: 24 white guinea pigs, purchased from Shenyang Pharmaceutical University, regular feeding; Basic fuchsine, from Tianjin Ju Hua Chemical Company Limited.\nMatching and grouping of experimental animals: randomly divided into 4 groups (each group includes 6 counts, equal number of male and female), namely, control, high, medium, low fuchsine dosage group.\nMethod of administration: For each guinea pig, administered one time per day at a fixed time in the morning, the dosage for high, medium, low fuchsine dosage group are 8 mg/kg body weight/d, 6 mg/kg body weight/d, and 4 mg/kg body weight/d respectively; the drug administration period is 21 days, observe 3˜4 times per day, observe the guinea pig by spirit condition, appetite, gloss level of skin and hairs, physical condition, alertness and ability to escape."}, "[2]": {"assay": "Change of urine pH with time after taking basic fuchsine", "type": "in vivo, human", "settings": "for Urine pH value, Average: average of 9 patients, before drug 6; for Patent's urine pH value: individual patient (vegetarian), hydrochloride", "procedure": "Therefore, the infected body, which is weakly acidic, is recovered to become weakly basic and this is beneficial to increasing the body's immunity such that Mycobacterium tuberculosis can be inhibited or removed. Because the integration of lysosomes inside macrophage with phagosome cannot be prevented, the bacteria can be removed. The changes in urine pH after taking basic fuchsine is illustrated in Table 2 and FIG. 1:\nRemarks: The urine pH value reached the peak value at 2-3 hours after taking drug, and the peak period can sustain for 3-4 hours, then return to normal at 5-6 hours after taking drug."}, "Leprosy ulcers": {"system": "Leprosy ulcers", "assay": "Basic Fuchsine for Treatment of Leprosy (patients)", "type": "in vivo, human", "settings": "individual leprosy ulcer patient, treatment method External"}, "[3]": {"system": "Mycobacterium tuberculosis", "assay": "Drug Susceptibility Testing on Lowenstein-Jensen medium", "type": "cell-based", "procedure": "Drug Susceptibility Testing\n(II) Culture Method: Lowenstein-Jensen medium (Improved method)\nKH2PO4: 2.4 g; MgSO4.7H2O 0.24 g; magnesium citrate: 0.6 g; asparagine: 3.6 g; glycerin: 12 ml; distilled water: 600 ml; potato starch: 30 g; fresh whole egg liquid: 1000 ml; 2% malachite green solution: 20 ml\n4. Drug: 2% basic fuchsine aqueous solution: 100 ml\nAdd water to KH2PO4, MgSO4.7H2O, magnesium citrate, asparagine and glycerin, dissolve through heating in a boiling water bath, then add potato starch and continue heating in water bath for 30 minutes, stir continuously to form a uniform paste. After cooling to about 60° C., add 1000 ml fresh whole egg liquid and 20 ml 2% malachite green solution, mix thoroughly and then filter by double-layered gauze, then dispensed into test tube with screw cap. 7 ml of the prepared solution is added to each test tube, then add the 2% basic fuchsine solution according to a specific proportion into the test tube (see Table 3 for the adding amount), then place the test tube into the 85% steam incubator for 90 minutes, cooling to 60° C. or below and then place the test tube inclinedly into the biological safety cabinet (also called purification station), thereby the culture medium is cooled to solidify and form an incline surface. Put 10^−2/ml living bacilli solution of Mycobacterium tuberculosis to the incline surface of the culture medium. The living bacilli solution for each tube is 0.1 ml. The concentration of bacilli solution in the culture medium is 10^−3 mg/ml. Place in Digital Biochemical Incubator to culture. After culture for 5 weeks, no bacteria growth refers to drug susceptibility, continue bacteria growth refers to drug non-susceptibility (See Table 4 for testing results)."}, "M. tuberculosis": {"system": "M. tuberculosis", "assay": "Basic Fuchsine for treatment of Tuberculosis (patients)", "type": "in vivo, human", "settings": "for Drug treatment after 1 month (TB status, symptoms): individual TB patient, capsule 500 mg (basic fuchsine:ground rice 3:2), 1-2 capsule/day oral, hydrochloride", "procedure": "Basic Fuchsine for treatment of Tuberculosis\nDosage for patient: Capsule, 500 mg/capsule, where the weight ratio of basic fuchsine to ground rice is 3:2, each patient takes 1˜2 capsule/day.\nMethod of administration: Every morning, before breakfast, take the capsule, three month as one treatment course, see Table 5 for patients' records, see Table 6 for treatment results.\n1. All patients were diagnosis and confirmed by standard TB hospital or TB prevention and treatment center, and all patients encountered disease recurrence after conventional standard drug treatment.\n3. Before drug treatment with basic fuchsine drug, all patients have obvious symptoms: body weakness, discomfort, fever, cough, night sweat, ascites, blood spitting, blood vomiting, etc. (skeletal TB patient experience pain, some experience amenorrhea)."}, "blood cells": {"system": "blood cells", "settings": "human, in vivo, po", "text": "After taking basic fuchsine, the basic fuchsine activity over time can be observed through the blood phenomenon at different times.\nHealthy individual as normal subject for observation\nPatient recovered from the disease who volunteer to testing subject as volunteer subject\nBinocular microscope xsp-12G model\nWright-Giemsa stain solution (available in the market)\nPhosphate buffer (available in the market)\nObtain peripheral blood smear from normal subject and volunteer subject (normal control blood film, standby use)\nObtain peripheral blood smear from volunteer subject at different time after taking fuchsine (oral fuchsine blood film, standby use)\nAfter the last blood sampling is complete, carrying staining together with the blood film before taking fuchsine orally of volunteer subject and the peripheral blood film of normal subject\nV. observe oral fuchsine blood film under microscope with 100× objective lens (oil immersion) and 12.5× eyepiece, real object is viewed under magnification at 1250 times and the results are shown in Table 3."}}, "note": "Values joined by “and” are separate entries in the source; they are usually repeats but may differ in a detail not shown here. Equal entries are not always repeated. “Also recorded” adds a separate entry of the source. Structures can show the parent of a compound that is named as a salt.", "data": [{"molecule": "Cc1cc(C(=C2C=CC(=N)C=C2)c2ccc(N)cc2)ccc1N", "note": "[basic fuchsine, rosaniline hydrochloride]", "values": [{"measurement": "Observation of spirit condition, appetite, skin and hairs, physical condition, alertness, ability to escape", "setting": "[1]", "result": "No changes is observed"}, {"measurement": "Time at which urine pH value reached the peak value", "setting": "[2]; after taking drug", "result": "2-3 hours"}, {"measurement": "Time of return of urine pH to normal", "setting": "[2]; after taking drug", "result": "5-6 hours"}, {"measurement": "Time the urine pH peak period can sustain", "setting": "[2]; after taking drug", "result": "3-4 hours"}, {"measurement": "Urine pH value, Average", "setting": "[2]; After drug 1 h", "result": 6.5}, {"measurement": "Urine pH value, Average", "setting": "[2]; After drug 2 h", "result": 7}, {"measurement": "Urine pH value, Average", "setting": "[2]; After drug 3 h", "result": 6.5}, {"measurement": "Urine pH value, Average", "setting": "[2]; After drug 4 h", "result": 6.5}, {"measurement": "Urine pH value, Average", "setting": "[2]; After drug 5 h", "result": 6}, {"measurement": "Urine pH value, Average", "setting": "[2]; After drug 6 h", "result": 6}, {"measurement": "Patent's urine pH value", "setting": "[2]; After drug 1 h", "result": "6 (2×) and 6.5 (5×) and 7 (2×)"}, {"measurement": "Patent's urine pH value", "setting": "[2]; After drug 2 h", "result": "6.5 (2×) and 7 (5×) and 7.5 (2×)"}, {"measurement": "Patent's urine pH value", "setting": "[2]; After drug 3 h", "result": "6 (2×) and 6.5 (5×) and 7 (2×)"}, {"measurement": "Patent's urine pH value", "setting": "[2]; After drug 4 h", "result": "6 (2×) and 6.5 (5×) and 7 (2×)"}, {"measurement": "Patent's urine pH value", "setting": "[2]; After drug 5 h", "result": "5.5 (2×) and 6 (5×) and 6.5 (2×)"}, {"measurement": "Patent's urine pH value", "setting": "[2]; After drug 6 h", "result": "5.5 (2×) and 6 (5×) and 6.5 (2×)"}, {"measurement": "Remarks (outcome)", "setting": "Leprosy ulcers", "result": "Absorbed,"}, {"measurement": "Testing results (bacteria growth)", "setting": "[3]; Tube 1, 0.7 ml 2% basic fuchsine solution, final dilution factor 500, 5 weeks at 36 C", "result": "Grow"}, {"measurement": "Testing results (bacteria growth)", "setting": "[3]; Tube 2, 0.525 ml 2% basic fuchsine solution, final dilution factor 750, 5 weeks at 36 C", "result": "Grow"}, {"measurement": "Testing results (bacteria growth)", "setting": "[3]; Tube 3, 0.35 ml 2% basic fuchsine solution, final dilution factor 1000, 5 weeks at 36 C", "result": "Grow"}, {"measurement": "M. tuberculosis (acid-fast bacilli) in sputum after taking basic fuchsine for one month", "setting": "M. tuberculosis; TB patients", "result": "no M. tuberculosis is found in sputum"}, {"measurement": "Patients' blood test for liver and kidney after taking basic fuchsine", "setting": "M. tuberculosis; TB patients", "result": "normal"}, {"measurement": "TB symptoms after taking basic fuchsine for three months", "setting": "M. tuberculosis; TB patients", "result": "TB symptoms are eliminated"}, {"measurement": "X-ray after taking basic fuchsine for six months", "setting": "M. tuberculosis; TB patients", "result": "recovery are confirmed through X-ray"}, {"measurement": "Adverse reactions / side effect during the course of treatment", "setting": "M. tuberculosis; all cases", "result": "no side effect is observed in all cases"}, {"measurement": "Drug treatment after 1 month (TB status, symptoms)", "setting": "M. tuberculosis; 1 capsule/day", "result": "TB Improved (−); also recorded: Improved TB (−)"}, {"measurement": "Drug treatment after 1 month (TB status, symptoms)", "setting": "M. tuberculosis; 2 capsule/day", "result": "Pain reduced"}, {"measurement": "Symptoms after taking basic fuchsine for one month", "setting": "M. tuberculosis; majority of TB patients", "result": "Symptoms are significantly reduces"}, {"measurement": "Liver or kidney damage", "setting": "M. tuberculosis; patients taking drug for more than two years", "result": "no liver or kidney damages is observed"}, {"measurement": "Recurrence", "setting": "M. tuberculosis; patients who are recovered", "result": "no single occurrence of recurrence"}, {"measurement": "Time remained inside the cell after absorption into blood", "setting": "blood cells", "result": "2 to 4", "unit": "h"}]}]}
